In patent US20210177805A1 (Ovid Therapeutics Inc., priority 2018, published 2021):

Tests used:
[1] = tested on: subjects with Angelman syndrome; test: Efficacy in patients with Angelman syndrome, Clinical Global Impressions (CGI-S, CGI-I); format: in vivo, human
From the text: CGI-S scale assessed all sub-domains of Angelman syndrome (gross and fine motor ability, sleep, and adaptive behavior) plus globally by the investigator. […] The Clinical Global Impressions-Improvement (CGI-I) scale was used to assess all sub-domains of Angelman syndrome (gross and fine motor ability, sleep, and adaptive behavior) plus globally by the investigator and caregiver. CGI-I is a 7-point scale in which the investigator rates the improvement or worsening of symptoms compared to baseline.
Moreover, the percentage who were very much improved on CGI-I in the QD group vs placebo went from 20% (vs. 11%) to 27% (vs. 9%) to 33% (vs. 0%) progressing from the oldest to youngest cohorts.

[2] = tested on: subjects with Angelman syndrome; test: Sleep diary in patients with Angelman syndrome; format: in vivo, human; settings: for 6-week LS Mean difference, total sleep time at night / 12-week LS Mean difference, total sleep time at night: change from baseline
From the text: The most notable change from patient sleep diaries was in the number of nights slept independently. In the QD dose cohort, one quarter of patients slept every night with parents, at 12 weeks, this had improved to only 1 in 5 nights; in the placebo group, the most effected quarter slept 3 of 4 nights with parents, which had improved to 2 of 4 nights at 12 weeks (P<0.001, Chi Square). The observed and change from baseline in total hours of sleep time at night (assessed from subject Sleep Diary) is provided in Table III.

[3] = tested on: subjects with Angelman syndrome; test: Treatment-related and treatment-emergent adverse events in patients with Angelman syndrome
Protocol: This multicenter, randomized, parallel (3-arm), double-blind, placebo-controlled trial enrolled 88 patients including adults (n=66) and adolescents (n=22) aged 13 to 49 years of age, diagnosed with Angelman syndrome. […] The dosing schedules that were assessed against placebo were once daily (QD): An evening dose titrated to the target dose of 15 mg unless not tolerated; and twice daily (BID): Evening and morning doses titrated to the target doses of 15 mg evening dose and 10 mg morning dose unless not tolerated.
Gastrointestinal adverse events may be considered fundamental to the behavioral disturbances seen in autistic spectrum disorders, such as autism and Angelman syndrome.

[4] = human, in vivo
Protocol: Each subject was expected to complete all 6 treatment periods and there was a washout of at least 4 days between each treatment period.
Each oral dosing within Treatment Periods consisted of 2 capsules of test drug taken simultaneously at each scheduled dosing. […] Subjects received their study drug after an overnight fast with 240 mL of water in the morning about 8:00 AM. Water was permitted ad libitum except within 1 hour prior to and after study drug administration. No food was allowed for 4 hours post dose.

Oc1noc2c1CCNC2 [gaboxadol, 4,5,6,7-tetrahydroisoxazolo [5,4-c]pyridine-3-ol]
CGI-I ([1]; QD 15 mg evening dose, 7-point scale, vs. 3.8 placebo, p=0.0006): 3.0 | CGI-I 12-week LS Mean ([1]; QD dosing (N = 29), clinician assessed, MMRM): 3.00 (0.16) | 6-week LS Mean sleep time (total sleep time at night, Sleep Diary) ([2]; BID dosing (N = 29)): 8.95 (1.1) hours | 12-week LS Mean sleep time (total sleep time at night, Sleep Diary) ([2]; BID dosing (N = 29)): 8.84 (1.1) hours | 6-week LS Mean difference, total sleep time at night ([2]; BID dosing): 0.30 (1.1) hours | 12-week LS Mean difference, total sleep time at night ([2]; BID dosing): 0.18 (0.97) hours | 6-week LS Mean sleep time (total sleep time at night, Sleep Diary) ([2]; Combined (N = 58)): 8.93 (1.3) hours | 12-week LS Mean sleep time (total sleep time at night, Sleep Diary) ([2]; Combined (N = 58)): 8.80 (1.1) hours | 6-week LS Mean difference, total sleep time at night ([2]; Combined): 0.22 (0.94) hours | 12-week LS Mean difference, total sleep time at night ([2]; Combined): 0.07 (1.0) hours | 6-week LS Mean sleep time (total sleep time at night, Sleep Diary) ([2]; QD dosing (N = 29)): 8.91 (1.5) hours | 12-week LS Mean sleep time (total sleep time at night, Sleep Diary) ([2]; QD dosing (N = 29)): 8.76 (1.2) hours | 6-week LS Mean difference, total sleep time at night ([2]; QD dosing): 0.14 (0.81) hours | 12-week LS Mean difference, total sleep time at night ([2]; QD dosing): −0.04 (1.1) hours | Abdominal Pain upper, subjects (%) ([3]; BID dosing (N = 29)): 0 | At least 1 Adverse Event, subjects (%) ([3]; BID dosing (N = 29)): 19 (66%)^ | Diarrhea, subjects (%) ([3]; BID dosing (N = 29)): 1 (3.4%) | Gastrointestinal disorders, subjects (%) ([3]; BID dosing (N = 29)): 4 (13.8%) | Nausea, subjects (%) ([3]; BID dosing (N = 29)): 2 (6.9%) | Retching, subjects (%) ([3]; BID dosing (N = 29)): 1 (3.4%) | Vomiting, subjects (%) ([3]; BID dosing (N = 29)): 1 (3.4%) | Abdominal Pain upper, subjects (%) ([3]; Combined (N = 58)): 0 | At least 1 Adverse Event, subjects (%) ([3]; Combined (N = 58)): 37 (64%)^ | Diarrhea, subjects (%) ([3]; Combined (N = 58)): 1 (1.7%) | Gastrointestinal disorders, subjects (%) ([3]; Combined (N = 58)): 4 (6.9%) | Nausea, subjects (%) ([3]; Combined (N = 58)): 2 (3.4%) | Retching, subjects (%) ([3]; Combined (N = 58)): 1 (1.7%) | Vomiting, subjects (%) ([3]; Combined (N = 58)): 1 (1.7%) | Abdominal Pain upper, subjects (%) ([3]; QD dosing (N = 29)): 0 | At least 1 Adverse Event, subjects (%) ([3]; QD dosing (N = 29)): 18 (62%) | Diarrhea, subjects (%) ([3]; QD dosing (N = 29)): 0 | Gastrointestinal disorders, subjects (%) ([3]; QD dosing (N = 29)): 0 | Nausea, subjects (%) ([3]; QD dosing (N = 29)): 0 | Retching, subjects (%) ([3]; QD dosing (N = 29)): 0 | Vomiting, subjects (%) ([3]; QD dosing (N = 29)): 0 | CL (CL/F row, footnote for 10 mg IV) ([4]; iv, 10 mg): 438 mL/min | AUC0-∞ Slope (90% CI), dose proportionality assessment ([4]; po): 0.98 (0.95, 1.01)
